From patent EP1161410B1, “RETINOID ANTAGONISTS AND USE THEREOF” (Basilea Pharmaceutica AG, priority 1999, dated 2000) come the findings set out here.

Series [1] deals with IL-12. The series is described as follows: IL-12 production by PBMC primed with IFNγ and stimulated with SAC. The series is classed as cell-based, human. The settings on record: IFNγ+SAC alone 360. As for the experimental part:
THP-1 cells were obtained from American Tissue Culture Collection and cultured in complete medium. To assay for IL-12 production, THP-1 cells, 1.25 x 10^6 cells/ml, were stimulated with S. aureus Cowan strain (SAC) (1/1000) and human recombinant interferon-γ (huIFN-γ (1000 U/ml) [Ma et al., J. Exp. Med. 183, 147-157 (1996)]. Alternatively, 0.5 x 10^6 human peripheral blood mononuclear cells (PBMC) (1 ml culture in 48 well plates) were primed with huIFN-γ (1000 U/ml) for 16 hours at 37°C, and then stimulated with SAC (1/1000). Supernatants were collected after 48 hours and freezed at -20 °C until assayed [Panina-Bordignon et al., J. Clin. Invest. 100, 1513-1519 (1997)].
IL-12 production was measured by specific enzyme linked immuno sorbant assay (ELISA), using 20C2 antibody (rat anti human IL-12 heterodimer p40-p35), at 2.5 µg/ml in coating buffer, and peroxidase-conjugated 4D6 antibody (rat anti human IL-12) at 250 ng/ml in assay buffer as described [Zhang et al., J. Clin. Invest. 93, 1733-1739 (1994)]. Standard (recombinant human IL-12, 800 pg/ml to 6 pg/ml) and samples (100 µl) diluted in assay buffer were added to duplicate wells. Absorbance was read at 450-650 nm. The unknown IL-12 concentrations of the samples were read from the corresponding standard curve and multiplied by the corresponding dilution factor. Maximal IL-12 production varied between 200 and 400 pg/ml.
Lyophilized retinoid antagonists were diluted in DMSO under yellow light, on ice at a concentration of 2 mM. Serial dilutions (1 µM-1 pM) were prepared in complete RPMI medium. 10 µl of each dilution was added to 1 ml culture.

In series [2] the test system is IL-12. The series is described as follows: IL-12 production by activated monocytes (SAC + IFN-γ), ELISA. The series is classed as cell-based, human. Particulars: SAC+IFN-γ alone 120-126 pg/ml. As for the experimental part: THP-1 cells were obtained from American Tissue Culture Collection and cultured in complete medium. […] Exp. Med. 183, 147-157 (1996)]. […] Supernatants were collected after 48 hours and freezed at -20 °C until assayed [[…]-Bordignon et al., J. Clin. Invest. 100, 1513-1519 (1997)]. […] Clin. Invest. 93, 1733-1739 (1994)]. […] Absorbance was read at 450-650 nm. The unknown IL-12 concentrations of the samples were read from the corresponding standard curve and multiplied by the corresponding dilution factor. […] Serial dilutions (1 μM-1 pM) were prepared in complete RPMI medium. 10 μl of each dilution was added to 1 ml culture.
Background: ELISA stands for enzyme-linked immunosorbent assay.

The nature of series [3]: Clinical trial, topical treatment of precancerous lesions of the skin (multiple actinic keratoses). The class given is in vivo, human. The settings on record: cream 1 % twice daily. The source says:
Efficacy of topical application of Compound B in the treatment of precancerous lesions of the skin (multiple actinic keratoses)
In a clinical trial, a cream containing 1 % of Compound B was applied on the lesions twice daily without occlusive dressing. […]

In series [4] the test system is airway inflammatory cell accumulation. As to the kind of experiment: Murine model of allergen-induced airway inflammation: airway inflammatory cell accumulation. The series is classed as in vivo, C57BL/6 mice. Particulars: for Cell Influx, Total leukocytes: vehicle 795000; for Cell Influx, Eosinophils: vehicle 335000; for Cell Influx, Macrophages: vehicle 443000. The protocol: Murine model of allergen-induced airway inflammation and hyperresponsiveness.
C57BL/6 mice (8-9 weeks old) are actively sensitized to ovalbumin (OA) on day 0 and on day 14 by a intraperitoneal injection of 10 µg OA + 1 mg Al(OH)3 (gel suspension) in 0.2 ml sterile saline. On day 21, the mice were challenged with 5.0 % OA aerosol for 18 minutes. The aerosol is generated by a De Vilbiss Ultra-Neb 90 ultrasonic nebulizer, the outlet of which is connected to a small plexiglass chamber containing the animals. The mice are dosed with the RXR antagonist Compound B (10 and 30 mg/kg intraperitoneally) daily for three days, 48 hours, 24 hours, and immediately prior to OA challenge. Animals are used on […].
Airway Inflammatory Cell Accumulation: On day 24, three days after the challenge with OA aerosol, animals are anesthetized with urethane (2.4 g/kg) and tracheotomized with a 23 gauge catheter. Lungs are lavaged with aliquots (2 x 1 ml) of sterile Hank's balanced salt solution without Ca^++ and Mg^++. Lavage fluid is recovered after 30 sec by gentle aspiration and pooled for each animal. Samples then are centrifuged at 2000 rpm for 15 minutes at 5 °C. Red blood cells are lysed from the resulting pellet with 0.5 ml distilled water and the cells remaining in the pellet are reconstituted with 5 ml HBSS. Samples are centrifuged a second time at 2000 rpm for 15 minutes at 5 °C. The resulting pellet is suspended in 1 ml of HBSS. Total cell number is determined from an aliquot of the cell suspension using a hemocytometer. For cytological preparations, the cells are fixed on cytocentrifuged slides stained with a modified Wright's stain. Differential counts on at least 300 cells are made using standard morphological criteria to classify cells.

Where [5] appears, read: retinoid antagonist (1 µg) added after 16 hours together with SAC.
The mark [6] stands for this setting: retinoid antagonist (1 µg) added at time 0 together with IFNγ.
Where [7] appears, read: Patient I, both forearms, 4 months.
Where [8] appears, read: Patient IV, face and back of both hands, 3 months.

With `CCCCCCCOc1cc2c(cc1/C(C)=C/c1ccc(C(=O)O)cc1)C(C)(C)CCS2(=O)=O` [Compound H, p-[(E)-2-[3',4'-Dihydro-4',4'-dimethyl-7'-(beptyloxy)-2'H-1-benzothiopyran-6'-yl]propenyl]benzoic acid 1',1'-dioxide], the “PBMC IL-12” value in the series on IL-12 [1] (setting [5]) came to 401 pg/mL; in the series with IL-12 [1] (setting [6]), 503 pg/mL. For the same molecule, the IL-12 came to 102 pg/mL with IL-12 [2] (antagonist 100 nM) and 251 pg/mL with IL-12 [2] (antagonist 1000 nM).

`CCCCOc1c(\C(C)=C/C=C/C(C)=C/C(=O)O)cc(C(C)(C)C)cc1C(C)(C)C` [Compound B, (2E,4E,6Z)-7-(3,5-di-tert.butyl-2-butyloxyphenyl]-3-methyl-2,4,6-octatrienoic acid]: the “PBMC IL-12” value in the series with IL-12 [1] (setting [5]) came out at 367 pg/mL; in the series with IL-12 [1] (setting [6]) it was 568 pg/mL. The “Adverse Events (particularly irritation of lesions and surrounding skin)” value was “none” in series [3] (setting [7]); “none” in series [3] (Patient II, face, 6 weeks); “none” in series [3] (Patient III, face, 4 months); “none” in series [3] (setting [8]); “none” in series [3] (Patient V, face, 2 months). Moreover, the Improvement entry in series [3] (setting [7]) is “marked”; in series [3] (Patient II, face, 6 weeks), “slight”; in series [3] (Patient III, face, 4 months), “moderate”; in series [3] (setting [8]), “moderate”; in series [3] (Patient V, face, 2 months) it was “no”. Besides, the “Reduction in Size of Lesions” value in series [3] (Patient I, m, 53 years, both forearms, 4 months) turned out to be 50%; in series [3] (Patient III (person two), face, 4 months), 30%; in series [3] (Patient V, m, 74 years, face, 2 months), 0%. Further, the “Percent of reduction, Eosinophils” value was found to be 48% in series [4] (10 mg/kg intraperitoneally) and 73% in series [4] (30 mg/kg intraperitoneally). In addition, the “Percent of reduction, Macrophages” value in series [4] (10 mg/kg intraperitoneally) was found to be 35%; in series [4] (30 mg/kg intraperitoneally) it was 62%. The “Percent of reduction, Total leukocytes” value in series [4] (10 mg/kg intraperitoneally) is recorded as 39%; in series [4] (30 mg/kg intraperitoneally), 66%. Besides, the “Cell Influx, Total leukocytes” value in series [4] (10 mg/kg intraperitoneally daily for three days) is listed as 488000 cells/ml; in series [4] (30 mg/kg intraperitoneally daily for three days), 271000 cells/ml. Also, the “Cell Influx, Eosinophils” value came out at 176000 cells/ml in series [4] (10 mg/kg intraperitoneally) and 91000 cells/ml in series [4] (30 mg/kg intraperitoneally). Also, the “Cell Influx, Macrophages” value in series [4] (10 mg/kg intraperitoneally) came to 289000 cells/ml; in series [4] (30 mg/kg intraperitoneally) it was 172000 cells/ml. Besides, the IL-12 was 106 pg/mL with IL-12 [2] (antagonist 10 nM), 161 pg/mL in the series with IL-12 [2] (antagonist 100 nM) and 298 pg/mL in the series on IL-12 [2] (antagonist 1000 nM).
